Laboratory results taken from article PMC12649549, “Sequence Permutation Generated Lysine and Tryptophan-Rich Antimicrobial Peptides with Enhanced Therapeutic Index” (Antibiotics, 2025).
Where two headings read alike, the source gives them in different places.

What was measured:
[1] = test system: A. baumannii 14B0091 (Acinetobacter sp., BCRC number 14B0091)
Summary of the method: (§1)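 Broth microdilution per CLSI in Müller-Hinton broth and modified LYM broth (pH 7.4; variants with 50–300 mM NaCl, 0.5–2.5 mM MgCl2, or pH 6.5–4.5). Inoculum 5 × 10^5 CFU/mL; peptides tested at 0.78–50 µg/mL final. MIC read; three independent repeats.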

S. aureus ATCC 25923 = test system: S. aureus ATCC 25923
Summary of the method: as §1

[2] = test system: Pseudomonas aeruginosa Migula (ATCC 27853)
Summary of the method: as §1

S. aureus ATCC 6538 = test system: S. aureus ATCC 6538
Summary of the method: as §1

[3] = test system: A. baumannii 14B0097 (Acinetobacter sp., BCRC number 14B0097)
Summary of the method: as §1

S. aureus ATCC 33591 = test system: S. aureus ATCC 33591
Summary of the method: as §1

[4] = test system: Escherichia coli (ATCC 25922)
Summary of the method: as §1

[5] = LYM broth, 0 mM NaCl, 16 h, 37 °C
[6] = LYM broth, 50 mM NaCl, 16 h, 37 °C
[7] = LYM broth, 100 mM NaCl, 16 h, 37 °C
[8] = LYM broth, 200 mM (NaCl), 16 h, 37 °C
[9] = LYM broth, 300 mM (NaCl), 16 h, 37 °C
[10] = MH broth, 5 × 10^5 CFU/mL, 16 h, 37 °C, repeated three times

Ac-WLAKKKKWRKWLK-NH2 [Peptide W5K08]
MIC [1, 5]: 3.13 µg/mL
MIC ([1]; LYM broth, 0.5 mM MgCl2): 3.13 µg/mL
MIC ([1]; LYM broth, 1.5 mM MgCl2): 3.13 µg/mL
MIC ([1]; LYM broth, 2.5 mM MgCl2): 6.25 µg/mL
MIC [1, 6]: 6.25 µg/mL
MIC [1, 7]: 25 µg/mL
MIC [1, 8]: >50 µg/mL
MIC [1, 9]: >50 µg/mL
MIC ([1]; LYM broth, pH 4.5): 6.25 µg/mL
MIC ([1]; LYM broth, pH 5.5): 3.13 µg/mL
MIC ([1]; LYM broth, pH 6.5): 3.13 µg/mL
MIC [1, 10]: >50 µg/mL
MIC (S. aureus ATCC 25923; [5]): 1.56 µg/mL
MIC (S. aureus ATCC 25923; LYM broth, 0.5 mM MgCl2): 3.13 µg/mL
MIC (S. aureus ATCC 25923; LYM broth, 1.5 mM MgCl2): 6.25 µg/mL
MIC (S. aureus ATCC 25923; LYM broth, 2.5 mM MgCl2): 6.25 µg/mL
MIC (S. aureus ATCC 25923; [6]): 3.13 µg/mL
MIC (S. aureus ATCC 25923; [7]): 12.5 µg/mL
MIC (S. aureus ATCC 25923; [8]): 50 µg/mL
MIC (S. aureus ATCC 25923; [9]): >50 µg/mL
MIC (S. aureus ATCC 25923; LYM broth, pH 4.5): 3.13 µg/mL
MIC (S. aureus ATCC 25923; LYM broth, pH 5.5): 3.13 µg/mL
MIC (S. aureus ATCC 25923; LYM broth, pH 6.5): 1.56 µg/mL
MIC (S. aureus ATCC 25923; [10]): 25 µg/mL
MIC [2, 5]: 3.13 µg/mL
MIC ([2]; LYM broth, 0.5 mM MgCl2): 3.13 µg/mL
MIC ([2]; LYM broth, 1.5 mM MgCl2): 6.25 µg/mL
MIC ([2]; LYM broth, 2.5 mM MgCl2): 12.5 µg/mL
MIC [2, 6]: 6.25 µg/mL
MIC [2, 7]: 25 µg/mL
MIC [2, 8]: 50 µg/mL
MIC [2, 9]: >50 µg/mL
MIC ([2]; LYM broth, pH 4.5): 6.25 µg/mL
MIC ([2]; LYM broth, pH 5.5): 3.13 µg/mL
MIC ([2]; LYM broth, pH 6.5): 3.13 µg/mL
MIC [2, 10]: 25 µg/mL
MIC (S. aureus ATCC 6538; [5]): 12.5 µg/mL
MIC (S. aureus ATCC 6538; LYM broth, 0.5 mM MgCl2): 3.13 µg/mL
MIC (S. aureus ATCC 6538; LYM broth, 1.5 mM MgCl2): 6.25 µg/mL
MIC (S. aureus ATCC 6538; LYM broth, 2.5 mM MgCl2): 6.25 µg/mL
MIC (S. aureus ATCC 6538; [6]): 25 µg/mL
MIC (S. aureus ATCC 6538; [7]): 50 µg/mL
MIC (S. aureus ATCC 6538; [8]): 50 µg/mL
MIC (S. aureus ATCC 6538; [9]): >50 µg/mL
MIC (S. aureus ATCC 6538; LYM broth, pH 4.5): 12.5 µg/mL
MIC (S. aureus ATCC 6538; LYM broth, pH 5.5): 6.25 µg/mL
MIC (S. aureus ATCC 6538; LYM broth, pH 6.5): 6.25 µg/mL
MIC (S. aureus ATCC 6538; [10]): >50 µg/mL
MIC [3, 5]: 3.13 µg/mL
MIC ([3]; LYM broth, 0.5 mM MgCl2): 3.13 µg/mL
MIC ([3]; LYM broth, 1.5 mM MgCl2): 3.13 µg/mL
MIC ([3]; LYM broth, 2.5 mM MgCl2): 6.25 µg/mL
MIC [3, 6]: 6.25 µg/mL
MIC [3, 7]: 12.5 µg/mL
MIC [3, 8]: 50 µg/mL
MIC [3, 9]: >50 µg/mL
MIC ([3]; LYM broth, pH 4.5): 6.25 µg/mL
MIC ([3]; LYM broth, pH 5.5): 3.13 µg/mL
MIC ([3]; LYM broth, pH 6.5): 3.13 µg/mL
MIC [3, 10]: 25 µg/mL
MIC (S. aureus ATCC 33591; [5]): 25 µg/mL
MIC (S. aureus ATCC 33591; LYM broth, 0.5 mM MgCl2): 25 µg/mL
MIC (S. aureus ATCC 33591; LYM broth, 1.5 mM MgCl2): 50 µg/mL
MIC (S. aureus ATCC 33591; LYM broth, 2.5 mM MgCl2): 50 µg/mL
MIC (S. aureus ATCC 33591; [6]): 50 µg/mL
MIC (S. aureus ATCC 33591; [7]): 50 µg/mL
MIC (S. aureus ATCC 33591; [8]): 50 µg/mL
MIC (S. aureus ATCC 33591; [9]): >50 µg/mL
MIC (S. aureus ATCC 33591; LYM broth, pH 4.5): 25 µg/mL
MIC (S. aureus ATCC 33591; LYM broth, pH 5.5): 25 µg/mL
MIC (S. aureus ATCC 33591; LYM broth, pH 6.5): 12.5 µg/mL
MIC (S. aureus ATCC 33591; [10]): >50 µg/mL
MIC [4, 5]: 3.13 µg/mL
MIC ([4]; LYM broth, 0.5 mM MgCl2): 6.25 µg/mL
MIC ([4]; LYM broth, 1.5 mM MgCl2): 6.25 µg/mL
MIC ([4]; LYM broth, 2.5 mM MgCl2): 6.25 µg/mL
MIC [4, 6]: 12.5 µg/mL
MIC [4, 7]: 12.5 µg/mL
MIC [4, 8]: 50 µg/mL
MIC [4, 9]: >50 µg/mL
MIC ([4]; LYM broth, pH 4.5): 3.13 µg/mL
MIC ([4]; LYM broth, pH 5.5): 3.13 µg/mL
MIC ([4]; LYM broth, pH 6.5): 3.13 µg/mL
MIC [4, 10]: 50 µg/mL

Ac-WLKWLAKKKKWRK-NH2 [Peptide W5K05]
MIC [1, 5]: 1.56 µg/mL
MIC ([1]; LYM broth, 0.5 mM MgCl2): 1.56 µg/mL
MIC ([1]; LYM broth, 1.5 mM MgCl2): 1.56 µg/mL
MIC ([1]; LYM broth, 2.5 mM MgCl2): 1.56 µg/mL
MIC [1, 6]: 1.56 µg/mL
MIC [1, 7]: 3.13 µg/mL
MIC [1, 8]: 6.25 µg/mL
MIC [1, 9]: 25 µg/mL
MIC ([1]; LYM broth, pH 4.5): 3.13 µg/mL
MIC ([1]; LYM broth, pH 5.5): 1.56 µg/mL
MIC ([1]; LYM broth, pH 6.5): 1.56 µg/mL
MIC [1, 10]: 12.5 µg/mL
MIC (S. aureus ATCC 25923; [5]): 1.56 µg/mL
MIC (S. aureus ATCC 25923; LYM broth, 0.5 mM MgCl2): 1.56 µg/mL
MIC (S. aureus ATCC 25923; LYM broth, 1.5 mM MgCl2): 3.13 µg/mL
MIC (S. aureus ATCC 25923; LYM broth, 2.5 mM MgCl2): 3.13 µg/mL
MIC (S. aureus ATCC 25923; [6]): 3.13 µg/mL
MIC (S. aureus ATCC 25923; [7]): 6.25 µg/mL
MIC (S. aureus ATCC 25923; [8]): 50 µg/mL
MIC (S. aureus ATCC 25923; [9]): 50 µg/mL
MIC (S. aureus ATCC 25923; LYM broth, pH 4.5): 1.56 µg/mL
MIC (S. aureus ATCC 25923; LYM broth, pH 5.5): 1.56 µg/mL
MIC (S. aureus ATCC 25923; LYM broth, pH 6.5): 1.56 µg/mL
MIC (S. aureus ATCC 25923; [10]): 25 µg/mL
MIC [2, 5]: 3.13 µg/mL
MIC ([2]; LYM broth, 0.5 mM MgCl2): 3.13 µg/mL
MIC ([2]; LYM broth, 1.5 mM MgCl2): 3.13 µg/mL
MIC ([2]; LYM broth, 2.5 mM MgCl2): 6.25 µg/mL
MIC [2, 6]: 6.25 µg/mL
MIC [2, 7]: 12.5 µg/mL
MIC [2, 8]: >50 µg/mL
MIC [2, 9]: >50 µg/mL
MIC ([2]; LYM broth, pH 4.5): 1.56 µg/mL
MIC ([2]; LYM broth, pH 5.5): 1.56 µg/mL
MIC ([2]; LYM broth, pH 6.5): 1.56 µg/mL
MIC [2, 10]: 25 µg/mL
MIC (S. aureus ATCC 6538; [5]): 3.13 µg/mL
MIC (S. aureus ATCC 6538; LYM broth, 0.5 mM MgCl2): 1.56 µg/mL
MIC (S. aureus ATCC 6538; LYM broth, 1.5 mM MgCl2): 1.56 µg/mL
MIC (S. aureus ATCC 6538; LYM broth, 2.5 mM MgCl2): 3.13 µg/mL
MIC (S. aureus ATCC 6538; [6]): 3.13 µg/mL
MIC (S. aureus ATCC 6538; [7]): 6.25 µg/mL
MIC (S. aureus ATCC 6538; [8]): 12.5 µg/mL
MIC (S. aureus ATCC 6538; [9]): 25 µg/mL
MIC (S. aureus ATCC 6538; LYM broth, pH 4.5): 3.13 µg/mL
MIC (S. aureus ATCC 6538; LYM broth, pH 5.5): 1.56 µg/mL
MIC (S. aureus ATCC 6538; LYM broth, pH 6.5): 1.56 µg/mL
MIC (S. aureus ATCC 6538; [10]): 12.5 µg/mL
MIC [3, 5]: 1.56 µg/mL
MIC ([3]; LYM broth, 0.5 mM MgCl2): 1.56 µg/mL
MIC ([3]; LYM broth, 1.5 mM MgCl2): 1.56 µg/mL
MIC ([3]; LYM broth, 2.5 mM MgCl2): 1.56 µg/mL
MIC [3, 6]: 3.13 µg/mL
MIC [3, 7]: 3.13 µg/mL
MIC [3, 8]: 6.25 µg/mL
MIC [3, 9]: 25 µg/mL
MIC ([3]; LYM broth, pH 4.5): 3.13 µg/mL
MIC ([3]; LYM broth, pH 5.5): 1.56 µg/mL
MIC ([3]; LYM broth, pH 6.5): 1.56 µg/mL
MIC [3, 10]: 6.25 µg/mL
MIC (S. aureus ATCC 33591; [5]): 6.25 µg/mL
MIC (S. aureus ATCC 33591; LYM broth, 0.5 mM MgCl2): 6.25 µg/mL
MIC (S. aureus ATCC 33591; LYM broth, 1.5 mM MgCl2): 12.5 µg/mL
MIC (S. aureus ATCC 33591; LYM broth, 2.5 mM MgCl2): 12.5 µg/mL
MIC (S. aureus ATCC 33591; [6]): 6.25 µg/mL
MIC (S. aureus ATCC 33591; [7]): 12.5 µg/mL
MIC (S. aureus ATCC 33591; [8]): 25 µg/mL
MIC (S. aureus ATCC 33591; [9]): 50 µg/mL
MIC (S. aureus ATCC 33591; LYM broth, pH 4.5): 6.25 µg/mL
MIC (S. aureus ATCC 33591; LYM broth, pH 5.5): 3.13 µg/mL
MIC (S. aureus ATCC 33591; LYM broth, pH 6.5): 3.13 µg/mL
MIC (S. aureus ATCC 33591; [10]): 50 µg/mL
MIC [4, 5]: 1.56 µg/mL
MIC ([4]; LYM broth, 0.5 mM MgCl2): 3.13 µg/mL
MIC ([4]; LYM broth, 1.5 mM MgCl2): 6.25 µg/mL
MIC ([4]; LYM broth, 2.5 mM MgCl2): 6.25 µg/mL
MIC [4, 6]: 3.13 µg/mL
MIC [4, 7]: 12.5 µg/mL
MIC [4, 8]: 50 µg/mL
MIC [4, 9]: >50 µg/mL
MIC ([4]; LYM broth, pH 4.5): 1.56 µg/mL
MIC ([4]; LYM broth, pH 5.5): 1.56 µg/mL
MIC ([4]; LYM broth, pH 6.5): 1.56 µg/mL
MIC [4, 10]: 12.5 µg/mL
